# From US11279733B2, “Peptide antibiotics” (priority 2017, dated 2022)
# Tested on: bacterial strains
# Assay: Potentiation/synergy antimicrobial assay (checkerboard, FICI) with antibiotics
# Format: cell-based
# Conditions: for MIC of antibiotic with 6442 at concn 0: 6442 0 μg/mL; for MIC of antibiotic with 8980 at conc 0: 8980 0 μg/mL; for MIC of antibiotic with 8980 at conc 1: 8980 1 μg/mL; for MIC of antibiotic with 8981 at conc 0: 8981 0 μg/mL; for MIC of antibiotic with 8981 at conc 1: 8981 1 μg/mL; for MIC of antibiotic with 8981 at conc 2: 8981 2 μg/mL; for MIC of antibiotic with 8981 at conc 4: 8981 4 μg/mL; for MIC of antibiotic with OctC4 at concn 0: OctC4 0 μg/mL; for MIC of antibiotic with OctC4 at concn 0.125: OctC4 0.125 μg/mL
# Protocol: Potentiation/synergy antimicrobial assays were conducted in the same manner as the standard MICs described above, with the following modifications. Assays were performed in 384-well non-binding surface plates (NBS; Corning 3460) and in Cation-adjusted Mueller Hinton Broth (CA-MHB; BD, Cat. No. 212322) with a final assay volume of 50 μL once bacteria was added at 5×10^5 CFU/mL. Antibiotics and octapeptin compounds were plated in duplicate as a 2-fold concentration series, in a matrix checkerboard format. The bacterial cell density of the resultant assay plates after 18-20 h incubation at 37° C. was read by optical density 600 nm (OD600) using a Tecan M1000 Pro Spectrophotometer, and analysed for ≥90% growth inhibition compared to the growth control to determine active concentrations. Synergistic effect was calculated based on the fractional inhibitory concentration index (FICI) by the following equation, where synergy is deemed FICI 0.5: […]
compound,measurement,setting,value
"CO[C@H]1/C=C/O[C@@]2(C)Oc3c(C)c(O)c4c(O)c(c(/C=N/N5CCN(C)CC5)c(O)c4c3C2=O)NC(=O)/C(C)=C\C=C\[C@H](C)[C@H](O)[C@@H](C)[C@@H](O)[C@@H](C)[C@H](OC(C)=O)[C@@H]1C [Rifampicin, rifampicin]",MIC of antibiotic with 6442 at concn 0,GN_102 K. pneumoniae XDR/PmxR,32 µg/mL
same,MIC of antibiotic with 6442 at concn 0.125,"GN_102 K. pneumoniae XDR/PmxR, 6442 0.125 μg/mL",16 µg/mL
same,MIC of antibiotic with 8980 at conc 0,GN_102 K. pneumoniae XDR/PmxR,32 µg/mL
same,MIC of antibiotic with 8980 at conc 1,GN_102 K. pneumoniae XDR/PmxR,16 µg/mL
same,MIC of antibiotic with 8981 at conc 0,GN_102 K. pneumoniae XDR/PmxR,32 µg/mL
same,MIC of antibiotic with 8981 at conc 1,GN_102 K. pneumoniae XDR/PmxR,16 to 32 µg/mL
same,MIC of antibiotic with 8981 at conc 2,GN_102 K. pneumoniae XDR/PmxR,16 µg/mL
same,MIC of antibiotic with 8981 at conc 4,GN_102 K. pneumoniae XDR/PmxR,8 to 16 µg/mL
same,MIC of antibiotic with OctC4 at concn 0,GN_102 K. pneumoniae XDR/PmxR,32 µg/mL
same,MIC of antibiotic with OctC4 at concn 0.0625,"GN_102 K. pneumoniae XDR/PmxR, OctC4 0.0625 μg/mL",32 µg/mL
same,MIC of antibiotic with OctC4 at concn 0.125,GN_102 K. pneumoniae XDR/PmxR,32 µg/mL
same,MIC of antibiotic with 6442 at concn 0,GN_181 E. coli mcr-1,32 µg/mL
same,MIC of antibiotic with 6442 at concn 0.25,"GN_181 E. coli mcr-1, 6442 0.25 μg/mL",0.25 µg/mL
same,MIC of antibiotic with 8980 at conc 0,GN_181 E. coli mcr-1,32 µg/mL
same,MIC of antibiotic with 8980 at conc 1,GN_181 E. coli mcr-1,32 µg/mL
same,MIC of antibiotic with 8980 at conc 2,"GN_181 E. coli mcr-1, 8980 2 μg/mL",32 µg/mL
same,MIC of antibiotic with 8980 at conc 4,"GN_181 E. coli mcr-1, 8980 4 μg/mL",32 µg/mL
same,MIC of antibiotic with 8981 at conc 0,GN_181 E. coli mcr-1,32 µg/mL
same,MIC of antibiotic with 8981 at conc 1,GN_181 E. coli mcr-1,32 µg/mL
same,MIC of antibiotic with 8981 at conc 2,GN_181 E. coli mcr-1,32 µg/mL
same,MIC of antibiotic with 8981 at conc 4,GN_181 E. coli mcr-1,32 µg/mL
same,MIC of antibiotic with OctC4 at concn 0,GN_181 E. coli mcr-1,32 µg/mL
arenicin-3,MIC of antibiotic with OctC4 at concn 0,GN_043 P. aeruginosa PmxR,2 µg/mL
same,MIC of antibiotic with OctC4 at concn 0,GN_093 A. baumannii XDR/PmxR,0.5 µg/mL
same,MIC of antibiotic with OctC4 at concn 0.125,GN_093 A. baumannii XDR/PmxR,0.008 µg/mL
same,MIC of antibiotic with OctC4 at concn 0.25,"GN_093 A. baumannii XDR/PmxR, OctC4 0.25 μg/mL",0.016 µg/mL
